Results reported in patent US20260062412A1, “NITROGEN-CONTAINING HETEROCYCLIC COMPOUND HAVING MYT1 INHIBITORY ACTIVITY” (CHUGAI SEIYAKU KABUSHIKI KAISHA, priority 2023, published 2026).
pIC50: −log10 of the molar value.

target: MYT1 protein (Homo sapiens (Human), UniProt Q99640); assay: Test for binding to ATP binding site of MYT1 (Kinase Tracer 178 / Eu-Anti-GST antibody TR-FRET); settings: ATP binding site of MYT1, 30 minutes at room temperature
Experimental: The binding capacity of each compound to the ATP binding site of MYT1 Kinase protein was evaluated. 5× Kinase Buffer A (manufactured by Thermo Fisher Scientific Inc., PV3189) was diluted to 5 times with Milli-Q water, thereby preparing 1× Kinase Buffer. Using 1× Kinase Buffer, MYT1 protein (manufactured by Carna Biosciences, Inc.) was diluted to a concentration of 0.005 μM and Eu-Anti-GST Antibody was diluted to a concentration of 1 μM. […] To a 96 well-plate, 2.5 μL of a compound diluted with DMSO was added. […] The mixture was well mixed and then allowed to stand at room temperature for 30 minutes. Thereafter, fluorescence wavelengths of 665 nm and 615 nm generated by irradiation with excitation light of 340 nm were detected using Envision (manufactured by PerkinElmer). The proportion of Tracer bound to MYT1 protein was calculated for every condition by dividing the intensity at the fluorescence wavelength of 665 nm by the intensity at the fluorescence wavelength of 615 nm.

Sequence of MYT1 protein (Q99640 whole entry): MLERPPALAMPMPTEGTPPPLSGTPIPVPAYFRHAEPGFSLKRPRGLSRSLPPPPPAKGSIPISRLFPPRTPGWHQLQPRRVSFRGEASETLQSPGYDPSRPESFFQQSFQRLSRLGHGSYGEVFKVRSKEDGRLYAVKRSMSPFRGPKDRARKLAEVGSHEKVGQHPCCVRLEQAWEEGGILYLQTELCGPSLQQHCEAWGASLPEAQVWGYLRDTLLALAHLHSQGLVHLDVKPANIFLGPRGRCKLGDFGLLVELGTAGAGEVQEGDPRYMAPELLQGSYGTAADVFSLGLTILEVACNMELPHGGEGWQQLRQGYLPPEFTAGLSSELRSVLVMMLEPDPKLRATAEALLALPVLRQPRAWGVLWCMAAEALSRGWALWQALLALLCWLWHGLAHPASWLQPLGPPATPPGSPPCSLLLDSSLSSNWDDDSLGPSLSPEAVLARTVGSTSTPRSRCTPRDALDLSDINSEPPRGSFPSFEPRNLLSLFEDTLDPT

pIC50 | SMILES
7.54 | N#Cc1cc2[nH]c(=O)c(N)c(-c3ccc(Cl)c4[nH]ncc34)c2cc1Cl [Compound A29, 3-Amino-6-chloro-4-(7-chloro-1H-indazol-4-yl)-2-oxo-1H-quinoline-7-carbonitrile]
8.12 | CC(=O)c1ccc2[nH]c(=O)c(N)c(-c3ccc(Cl)c4[nH]ncc34)c2c1 [Compound A31, 6-Acetyl-3-amino-4-(7-chloro-1H-indazol-4-yl)-1H-quinolin-2-one]
7.80 | CC(O)c1ccc2[nH]c(=O)c(N)c(-c3ccc(Cl)c4[nH]ncc34)c2c1 (stereo not shown) [Compound A32, 3-Amino-4-(7-chloro-1H-indazol-4-yl)-6-(1-hydroxyethyl)-1H-quinolin-2-one]
7.89 | Nc1c(-c2ccc(Cl)c3[nH]ncc23)c2cc(C3CCNCC3)ccc2[nH]c1=O [Compound A33, 3-Amino-4-(7-chloro-1H-indazol-4-yl)-6-piperidin-4-yl-1H-quinolin-2-one; 2,2,2-trifluoroacetate]
7.59 | CC(C)N1CCC(c2ccc3[nH]c(=O)c(N)c(-c4ccc(Cl)c5[nH]ncc45)c3c2)CC1 [Compound A34, 3-Amino-4-(7-chloro-1H-indazol-4-yl)-6-(1-propan-2-ylpiperidin-4-yl)-1H-quinolin-2-one]
7.72 | Nc1c(-c2ccc(Cl)c3[nH]ncc23)c2cc(C3CCN(C4CCC4)CC3)ccc2[nH]c1=O [Compound A35, 3-Amino-4-(7-chloro-1H-indazol-4-yl)-6-(1-cyclobutylpiperidin-4-yl)-1H-quinolin-2-one]
7.74 | Nc1c(-c2ccc(Cl)c3[nH]ncc23)c2cc(C3CCN(C4COC4)CC3)ccc2[nH]c1=O [Compound A36, 3-Amino-4-(7-chloro-1H-indazol-4-yl)-6-[1-(oxetane-3-yl)piperidin-4-yl]-1H-quinolin-2-one]
8.25 | Nc1c(-c2ccc(Cl)c3[nH]ncc23)c2cc(C(=O)NC3CC3)ccc2[nH]c1=O [Compound A37, 3-Amino-4-(7-chloro-1H-indazol-4-yl)-N-cyclopropyl-2-oxo-1H-quinoline-6-carboxamide]
7.70 | Nc1c(-c2ccc(Cl)c3[nH]ncc23)c2cc(C(=O)N3CCOCC3)ccc2[nH]c1=O [Compound A38, 3-Amino-4-(7-chloro-1H-indazol-4-yl)-6-(morpholine-4-carbonyl)-1H-quinolin-2-one]
7.64 | CN1CC(c2ccc3[nH]c(=O)c(N)c(-c4ccc(Cl)c5[nH]ncc45)c3c2)C1 [Compound A39, 3-Amino-4-(7-chloro-1H-indazol-4-yl)-6-(1-methylazetidin-3-yl)-1H-quinolin-2-one]
8.07 | Nc1c(-c2ccc(Cl)c3[nH]ncc23)c2ccc(Cl)cc2[nH]c1=O [Compound A40, 3-Amino-7-chloro-4-(7-chloro-1H-indazol-4-yl)-1H-quinolin-2-one]
6.35 | COc1cccc(-c2c(N)c(=O)[nH]c3ccc(Cl)cc23)c1 [Compound A42, 3-Amino-6-chloro-4-(3-methoxyphenyl)-1H-quinolin-2-one]
7.32 | Nc1c(-c2cccc3[nH]ncc23)c2cc(Cl)ccc2[nH]c1=O [Compound A43, 3-Amino-6-chloro-4-(1H-indazol-4-yl)-1H-quinolin-2-one]
5.30 | Nc1c(-c2ccncc2)c2cc(Cl)ccc2[nH]c1=O [Compound A44, 3-Amino-6-chloro-4-pyridin-4-yl-1H-quinolin-2-one]
5.30 | Nc1c(-c2cccnc2)c2cc(Cl)ccc2[nH]c1=O [Compound A45, 3-Amino-6-chloro-4-pyridin-3-yl-1H-quinolin-2-one]
5.23 | CS(=O)(=O)Nc1cccc(-c2c(N)c(=O)[nH]c3ccc(Cl)cc23)c1 [Compound A46, N-[3-(3-amino-6-chloro-2-oxo-1H-quinolin-4-yl)phenyl]methanesulfonamide]
5.48 | Nc1cc(-c2c(N)c(=O)[nH]c3ccc(Cl)cc23)ccn1 [Compound A47, 3-Amino-4-(2-aminopyridin-4-yl)-6-chloro-1H-quinolin-2-one]

pIC50 | SMILES
5.28 | Nc1c(-c2ccc3nc[nH]c3c2)c2cc(Cl)ccc2[nH]c1=O [Compound A48, 3-Amino-4-(3H-benzimidazol-5-yl)-6-chloro-1H-quinolin-2-one]
6.10 | Nc1c(-c2ccc3cn[nH]c3c2)c2cc(Cl)ccc2[nH]c1=O [Compound A49, 3-Amino-6-chloro-4-(1H-indazol-6-yl)-1H-quinolin-2-one]
5.24 | Nc1c(-c2cccc(OC(F)F)c2)c2cc(Cl)ccc2[nH]c1=O [Compound A50, 3-Amino-6-chloro-4-[3-(difluoromethoxy)phenyl]-1H-quinolin-2-one]
5.57 | Nc1c(-c2cccc(C(F)F)c2)c2cc(Cl)ccc2[nH]c1=O [Compound A51, 3-Amino-6-chloro-4-[3-(difluoromethyl)phenyl]-1H-quinolin-2-one]
5.36 | Cn1ccc(-c2c(N)c(=O)[nH]c3ccc(Cl)cc23)cc1=O [Compound A52, 3-Amino-6-chloro-4-(1-methyl-2-oxopyridin-4-yl)-1H-quinolin-2-one]
6.01 | Nc1c(-c2cccc3[nH]ccc23)c2cc(Cl)ccc2[nH]c1=O [Compound A53, 3-Amino-6-chloro-4-(1H-indol-4-yl)-1H-quinolin-2-one]
6.32 | Cc1cc(-c2c(N)c(=O)[nH]c3ccc(Cl)cc23)c2cn[nH]c2c1 [Compound A55, 3-Amino-6-chloro-4-(6-methyl-1H-indazol-4-yl)-1H-quinolin-2-one]
6.44 | Nc1c(-c2cc(Cl)cc3[nH]ncc23)c2cc(Cl)ccc2[nH]c1=O [Compound A58, 3-Amino-6-chloro-4-(6-chloro-1H-indazol-4-yl)-1H-quinolin-2-one]
5.41 | Cc1n[nH]c2cccc(-c3c(N)c(=O)[nH]c4ccc(Cl)cc34)c12 [Compound A62, 3-Amino-6-chloro-4-(3-methyl-1H-indazol-4-yl)-1H-quinolin-2-one]
6.15 | Cc1ccc2[nH]ncc2c1-c1c(N)c(=O)[nH]c2ccc(Cl)cc12 [Compound A63, 3-Amino-6-chloro-4-(5-methyl-1H-indazol-4-yl)-1H-quinolin-2-one]
6.72 | Nc1c(-c2cccc(O)c2)c2cc(C3CC3)ccc2[nH]c1=O [Compound A65, 3-Amino-6-cyclopropyl-4-(3-hydroxyphenyl)-1H-quinolin-2-one]
6.42 | Nc1c(-c2cccc(O)c2)c2ccccc2[nH]c1=O [Compound A66, 3-Amino-4-(3-hydroxyphenyl)-1H-quinolin-2-one]
6.89 | Nc1c(-c2c(F)ccc3[nH]ncc23)c2cc(Cl)ccc2[nH]c1=O [Compound A67, 3-Amino-6-chloro-4-(5-fluoro-1H-indazol-4-yl)-1H-quinolin-2-one]
5.10 | Nc1c(-c2cc[nH]c(=O)c2)c2cc(Cl)ccc2[nH]c1=O [Compound A68, 3-Amino-6-chloro-4-(2-oxo-1H-pyridin-4-yl)-1H-quinolin-2-one]
5.60 | Nc1nccc(-c2c(N)c(=O)[nH]c3ccc(Cl)cc23)n1 [Compound A69, 3-Amino-4-(2-aminopyrimidin-4-yl)-6-chloro-1H-quinolin-2-one]
5.21 | Nc1c(-c2ccccc2)c2ccccc2[nH]c1=O [Compound A70, 3-Amino-4-phenyl-1H-quinolin-2-one]
5.85 | Nc1c(N2CCCC(CO)C2)c2cc(Br)ccc2[nH]c1=O (stereo not shown) [Compound A71, 3-Amino-6-bromo-4-[3-(hydroxymethyl)piperidin-1-yl]-1H-quinolin-2-one 2,2,2-trifluoroacetate]
